Measured values published in publication PMC5642495, “Characterization of a novel androgen receptor (AR) coregulator RIPK1 and related chemicals that suppress AR-mediated prostate cancer growth via peptide and chemical screening” (Oncotarget, 2017).

Key:
AR transactivation = test: AR transcriptional reporter assay in PC-3 cells; assay type: cell-based, human; details: 10 nM DHT
Method: Figure 1 Associations between RIPK1 and AR (A) Co-IP of Flag-RIPK1 with Flag-AR in the 293T cell line. Extracts of 293T cells overexpressing 3xFlag-RIPK1 and 3xFlag-AR were treated with […]. IP was performed using anti-AR (C19) or anti-RIPK1 antibody or normal rabbit serum (negative control), followed by immunoblotting (IB) with antibodies against AR or RIPK1. (B) RIPK1 interacts with full-length AR and the N- and C-terminal regions of AR in GST pull-down assays. Mutation of the FxxFY motif to AxxAA in RIPK1 reduced interactions with AR. […] (C) Transfection of PC-3 prostate cancer cells with AR and RIPK1. PC-3 cells in 24-well plates were co-transfected with 300 ng MMTV-LUC reporter plasmid and 0.5 ng SV40-Renilla luciferase plasmid, together with 100 ng pCMV-Flag-AR and 100, 300 or 500 ng p3xFLAG- RIPK1. The total plasmid DNA content was made up to 1 µg with pCMV. After 16 h, ethanol or 10 nM DHT was added and cells incubated for an additional 16 h. DHT was used as the AR ligand while ARA70N served as the positive control. Relative LUC activity was determined using the dual luciferase system. (D) RIPK1 functional domain mapping in relation to AR transactivation. PC-3 cells were transfected with pCMV-Flag-AR and RIPK1 expression plasmid, P3xFlag-RIPK1 full-length, P3xFlag-RIPK1-(240-671) or P3xflag-RIPK1-(1-558) plasmid, and cultured overnight. Ethanol or 10 nM DHT was added and cells incubated for an additional 16 h. Relative LUC activity was determined using the dual luciferase system. (E) RIPK1 is expressed in benign prostatic hyperplasia tissue, displaying strong positivity (3+, > 90%) in the gland area but weak (1+, 50%) staining in the background. (F) Human prostate cancer tissues were immunostained for RIPK1. “T” indicates the tumor area (right side) and “Non-T” the non-tumor area (left side). RIPK1 expression was weak (1+, 80%) in the cancer area but remained strong (3+, 70%) in the peri-cancer area. The figures are representative of three benign prostatic gland hyperplasia and cancer tissues.
The PC-3 prostate cancer cell line was used for experiments. […]

AR protein = target: T1, AR protein (Homo sapiens, UniProt P10275); test: AR protein degradation; assay type: cell-based; details: Figure 6D
T1 sequence (P10275 1-920): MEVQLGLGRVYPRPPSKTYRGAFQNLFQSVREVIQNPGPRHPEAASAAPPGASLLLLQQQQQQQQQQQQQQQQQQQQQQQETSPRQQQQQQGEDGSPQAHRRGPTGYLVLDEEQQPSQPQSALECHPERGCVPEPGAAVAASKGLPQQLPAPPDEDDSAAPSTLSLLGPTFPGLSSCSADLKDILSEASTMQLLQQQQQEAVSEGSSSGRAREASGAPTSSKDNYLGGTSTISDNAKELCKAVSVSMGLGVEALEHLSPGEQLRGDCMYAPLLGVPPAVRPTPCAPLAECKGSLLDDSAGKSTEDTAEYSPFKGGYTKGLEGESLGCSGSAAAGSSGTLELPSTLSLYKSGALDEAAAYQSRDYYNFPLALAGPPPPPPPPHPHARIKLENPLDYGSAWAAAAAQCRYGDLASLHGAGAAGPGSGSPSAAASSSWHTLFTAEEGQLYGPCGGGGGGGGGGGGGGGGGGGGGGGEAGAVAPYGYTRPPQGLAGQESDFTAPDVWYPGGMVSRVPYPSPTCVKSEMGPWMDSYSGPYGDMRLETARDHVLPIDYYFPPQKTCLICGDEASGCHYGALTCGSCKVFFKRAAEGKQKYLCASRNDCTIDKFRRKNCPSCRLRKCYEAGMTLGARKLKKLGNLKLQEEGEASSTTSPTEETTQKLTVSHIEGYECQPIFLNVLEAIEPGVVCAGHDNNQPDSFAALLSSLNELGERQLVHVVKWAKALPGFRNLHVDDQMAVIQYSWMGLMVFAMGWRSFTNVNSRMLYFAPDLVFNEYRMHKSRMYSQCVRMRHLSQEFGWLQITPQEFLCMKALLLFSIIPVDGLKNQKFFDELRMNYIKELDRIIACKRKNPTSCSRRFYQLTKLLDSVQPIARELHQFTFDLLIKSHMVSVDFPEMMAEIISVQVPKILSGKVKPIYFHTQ
Method: Figure 6 Mechanism underlying suppression of AR-related functions by oxadiazole derivatives (A–C) Transcriptional activity in reporter assays. PC-3 cells in 24-well plates were transfected as indicated below. After incubation for 16 h, cells were treated with ethanol, 10 nM DHT, or 0.01–10 μM HWC-489 or LHJ-647 for an additional 16 h. Luciferase activity in cell lysates was determined and normalized to protein concentrations. Relative luciferase activity was calculated using the luciferase reporter assay system. (A) PC-3 cells were co-transfected with 350 ng pCDNA3-flag-hAR-N (residues 1–506), 350 ng pCDNA3-hAR-C (residues 556–919), and 300 ng MMTV-Luc plasmids. (B) PC-3 cells were co-transfected with 350 ng GAL4-DBD-3-18, 350 ng pCMX-VP16-AR, and 300 ng pG5-Luc plasmids. (C) PC-3 cells were transfected with 350 ng GAL4-DBD-ARA54C, 350 ng VP16-AR, and 300 ng pG5-Luc plasmids. (D) LHJ-647 promotes AR protein degradation.

Structure (SMILES)	effect on AR transactivation in combination with enzalutamide (AR transactivation; 1 µM enzalutamide plus 0.1 µM HWC-489 (lane 14 vs. 4))	effect on AR transactivation in combination with enzalutamide (AR transactivation; 1 µM enzalutamide plus 1 µM LHJ-647 (lane 9 vs. 4))	AR protein degradation (AR protein)
Cc1ccc(-c2nnc(Nc3ccccc3)o2)cc1 [HWC-489]	additive effect		
COc1cccc(Nc2nnc(-c3ccc(N(C)C)cc3)o2)c1 [LHJ-647]		additive effect	promoted AR protein degradation
